System: WNV protease
Assay: High Throughput Screen (HTS) protease assay
Format: biochemical, West Nile virus (EG101 strain)
Settings: 100 nl of 5 mg/ml compound in DMSO per 30.1 μl well; substrate Boc-Gly-Lys-Arg-AMC 50 μM; DMSO controls = 100% activity
Description: Procedures for expression and purification of WNV (EG101 strain) were similar to those described elsewhere by Mueller et al., Int. J. Biochem. Cell. Biol., 39: 606-14 (2007). Briefly, E. coli Top10 F′ cells (Invitrogen, Carlsbad, Calif.) were transformed with the protease expression plasmid. Cells were grown at 37° C. until the OD600 was ˜0.5. Cells were then induced with isopropyl-1-thio-β-D-galactopyranoside (American Bioanalytical, Natick, Mass.) (0.5 mM), and incubated for 4 h at 37° C. Cells were harvested by centrifugation (5000×g) for 15 min at 4° C., washed once with a buffer containing 50 mM Tris-HCl, pH 7.5, and 200 mM NaCl, centrifuged at 5000×g for 15 min at 4° C., and stored at -80° C. until used.
Proteases were purified by suspending bacterial pellets in 50 mM Hepes, pH 7.0, 500 mM NaCl, (buffer A) with 0.05 mg/ml lysozyme. Cells were incubated for 30 min on ice after addition of 10% stock solution of Triton X-100 (final concentration of 0.5%). Cells were disrupted by sonication for 2 min and the soluble fraction was collected after centrifugation (15,000×g) for 30 min at 4° C. The soluble fraction was incubated for 1 h at 4° C. with Talon resin (BD Bioscience, San Jose, Calif.) which was pre-equilibrated in buffer A. The affinity resin was centrifuged at (400×g) for 10 min at 4° C., washed three times with buffer A, and packed into a column. Washing of the column was continued with the buffer A containing 10 mM imidazole, followed by elution of the protease with buffer A containing 150 mM imidazole. The protease was concentrated and further purified by Sephadex G-75 gel filtration chromatography. The purified protease fractions were pooled and dialyzed against a buffer containing 50 mM Tris-HCl pH 7.5 and 300 mM NaCl (4×1 L). Aliquots (100 μl) were frozen at −80° C.
The protease assay (100 μl) described by Mueller et al., Int. J. Biochem. Cell. Biol. 39: 606-14 (2007) was adapted for a 384-well plate format (30.1 μl). Microtiter plates were loaded sequentially with 14 μl of the reaction buffer containing 200 mM Tris-HCl, pH 9.5, and 30% glycerol (TG buffer) using an automated Wellmate (Matrix, Hudson, N.H.) and 6 μl of WNV protease (0.05 μM) (as prepared above) in TG buffer containing 15 mM NaCl (3 mM final concentration). Plates were then centrifuged at 1000×g for 3 min at room temperature to mix samples and pool liquids at the bottom of the wells. Inhibitor compounds (100 nl of 5 mg/ml in dimethyl sulfoxide; DMSO) were added to each well in duplicate by a pin-transfer mechanism of a robotic delivery system. The final inhibitor concentrations in the assays varied due to different molecular weights of the compounds from the libraries that were screened. Plates were incubated at room temperature to allow for formation of protease/inhibitor complexes. The fluorogenic substrate, t-butyl-oxycarbonyl(Boc)-Gly-Lys-Arg-7-amino-4-methyl coumarin (AMC) (10 μl in TG buffer; 50 μM final concentration in the reaction mixture), was added using the Wellmate, and the plates were centrifuged for 3 min at 1000×g and incubated at room temperature for 15 min. Fluorescence was measured at excitation and emission wavelengths of 385 nm and 465 nm, respectively, on a Perkin-Elmer (Waltham, Mass.) spectrofluorometer. To validate the assay conditions, aprotinin (bovine pancreatic trypsin inhibitor, BPTI) was used as a positive control. Assay mixtures containing DMSO were used as negative controls. The average of fluorescence values in duplicate wells for a given compound was used to determine the percent activity by taking the values obtained with DMSO controls as 100%. Compounds 1-11, 18-32, and 37-101 above were identified. […] Compounds 12-17 are compounds related to those identified in the HTS screen that also show significant WNV protease inhibition, i.e., >95%.

Row | SMILES | % Inhibition (reduction in protease activity) [%]
1 | COc1ccc(C(NC(=O)c2ccccc2)c2ccc3cccnc3c2O)cc1 (centres unmarked) [Compound 1] | 86
2 | O=C(NC(c1ccccc1Cl)c1ccc2cccnc2c1O)c1ccccc1 (centres unmarked) [Compound 2] | 85
3 | COC(=O)c1ccc(C(Nc2ccccn2)c2ccc3ccc(C)nc3c2O)cc1 (centres unmarked) [Compound 3] | 84.5
4 | Cc1ccc2ccc(C(Nc3ccccn3)c3ccc4c(c3)OCO4)c(O)c2n1 (centres unmarked) [Compound 4] | 83
5 | C=CCOc1cccc(C(Nc2cccc(C)n2)c2ccc3cccnc3c2O)c1 (centres unmarked) [Compound 5] | 81
6 | CN(C)c1ccc(C(Nc2nccs2)c2ccc3cccnc3c2O)cc1 (centres unmarked) [Compound 6] | 76
7 | CCCCC(=O)NC(c1cccs1)c1cc(Cl)c2cccnc2c1O (centres unmarked) [Compound 7] | 76
8 | Oc1c(C(Nc2ccccn2)c2ccccc2)ccc2cccnc12 (centres unmarked) [Compound 8] | 75
9 | Oc1c(C(Nc2nccs2)c2ccc(F)cc2)ccc2cccnc12 (centres unmarked) [Compound 9] | 74
10 | Cc1cc(NC(c2cccc(Br)c2)c2ccc3cccnc3c2O)no1 (centres unmarked) [Compound 10] | 70
11 | Oc1c(C(c2ccc(Cl)cc2)N2CCOCC2)cc(Cl)c2cccnc12 (centres unmarked) [Compound 11] | 65
12 | Cc1ccnc(NC(c2ccccc2O)c2ccc3cccnc3c2O)c1 (centres unmarked) [Compound 12] | >95
13 | Oc1c(C(Nc2nccs2)c2ccccc2)ccc2cccnc12 (centres unmarked) [Compound 14] | >95
14 | Cc1cccc(NC(c2ccccc2OCc2ccccc2)c2ccc3cccnc3c2O)n1 (centres unmarked) [Compound 15] | >95
15 | CCN1C(=O)/C(=C/c2ccc(NC(=O)c3ccccc3Br)cc2)SC1=S [Compound 18] | 83.5
16 | CC(/C=C1\SC(=S)N(CC(=O)Nc2ccccn2)C1=O)=C\c1ccccc1 [Compound 19] | 76.5
17 | O=C(CCCN1C(=O)/C(=C/C=C/c2ccccc2)SC1=S)Nc1ccccn1 [Compound 21] | 74
18 | CC(/C=C1\SC(=S)N(CC(=O)Nc2cccnc2)C1=O)=C\c1ccccc1 [Compound 22] | 72.5
19 | CC(/C=C1\SC(=S)N(CCCC(=O)Nc2cccnc2)C1=O)=C\c1ccccc1 [Compound 23] | 72

Row | SMILES | % Inhibition (reduction in protease activity) [%]
20 | CC1=NC(NC(=O)CCN2C(=O)/C(=C/C(C)=C/c3ccccc3)SC2=S)[SH]=C1 (centres unmarked) [Compound 24] | 70
21 | CC(/C=C1\SC(=S)N(CCC(=O)Nc2ccccc2O)C1=O)=C\c1ccccc1 [Compound 25] | 67
22 | O=C1/C(=C/C2C=CC=[SH]2)SC(=S)N1CC(=O)N(Cc1ccccc1)c1ccccc1 (centres unmarked) [Compound 26] | 67
23 | O=C(CCCN1C(=O)/C(=C/C=C/c2ccccc2)SC1=S)Nc1cccc(F)c1 [Compound 27] | 66
24 | O=C(CCCN1C(=O)/C(=C/C=C/c2ccccc2)SC1=S)Nc1cccc(O)c1 [Compound 28] | 63
25 | Cc1cccc(N2C(=O)/C(=C/c3ccc(O)c(O)c3)SC2=S)c1C [Compound 29] | 58
26 | O=C1NC(=S)S/C1=C\c1ccc(-c2cccc(C(F)(F)F)c2)o1 [Compound 30] | 53
27 | CC(C)N1C(=O)/C(=C2/C(=O)N(CC(=O)O)c3ccc(Br)cc32)SC1=S [Compound 31] | 53
28 | COC(=O)/C=C1\S/C(=N/c2ccc(Cl)cc2)N(c2ccc(Cl)cc2)C1=O [Compound 32] | 59
29 | Clc1ccc(CN2COc3c(cc(Cl)c4cccnc34)C2)cc1 [Compound 37] | 71
30 | CC(Oc1cc(Cl)ccc1Cl)C(=O)N1CCc2ccccc21 (centres unmarked) [Compound 38] | 58
31 | COc1ccc(OCC(=O)OCCN2C(=O)c3ccccc3C2=O)cc1 [Compound 39] | 57
32 | O=C(c1conc1-c1ccccc1)n1cccc1 [Compound 40] | 56
33 | Cn1c(=O)n(CCOc2ccc(Cl)cc2)c2ccccc21 [Compound 41] | 56
34 | O=C1c2ccccc2C(O)(Cc2ccccc2)N1c1ccc2c(c1)OCO2 (centres unmarked) [Compound 42] | 54
35 | O=C1C(c2ccccc2)c2ccccc2N1Cc1ccccc1 (centres unmarked) [Compound 43] | 54
36 | O=C1Nc2ccccc2/C1=C/c1ccccc1N1CCOCC1 [Compound 44] | 52
37 | Cc1ccc(-c2csc(-n3sc4ccccc4c3=O)n2)cc1 [Compound 45] | 52
38 | CCOC(=O)C1C(=O)N(C(=O)c2ccc(OC)cc2)CC1c1ccccc1 (centres unmarked) [Compound 46] | 50

Row | SMILES | % Inhibition (reduction in protease activity) [%]
39 | O=C(COc1cccc2ccccc12)N1CCc2ccccc2C1 [Compound 47] | 83
40 | O=c1[nH]c2ccccc2c(O)c1-c1nc2ccccc2s1 [Compound 48] | 67
41 | COC(=O)c1ccc2c(c1)N(Cc1nc(-c3ccccc3C)oc1C)C(=O)C1CCCN21 (centres unmarked) [Compound 49] | 58
42 | O=C1N=c2ccc(S(=O)(=O)N(CCc3ccccc3)Cc3ccccc3)cc2=NC1=O [Compound 50] | 55
43 | C=CCn1c(Cc2ccccc2)nc2c(cnn2-c2ccccc2)c1=O [Compound 52] | 52
44 | COc1ccc(Cc2c(O)nc(SC)n(-c3ccccc3)c2=O)cc1 [Compound 55] | 51
45 | C=CCn1c(SCc2ccc(C(=O)OC)cc2)nc2ccccc2c1=O [Compound 56] | 51
46 | O=C(CC1Sc2ncnn2C1=O)Nc1ccc(Br)cc1 (centres unmarked) [Compound 57] | 58
47 | O=C(Nc1ccc(F)cc1F)c1ccc2c(c1)C(=O)N(Cc1ccco1)C2=O [Compound 58] | 55
48 | CCOC(=O)c1ccc(NC(=O)Cn2ncc3c4ccccc4n(Cc4ccccc4)c3c2=O)cc1 [Compound 59] | 53
49 | O=C(Cn1cnc2ccccc2c1=O)Nc1ccc(Oc2ccccc2)cc1 [Compound 60] | 51
50 | CCOc1cc2c(cc1OCC)C1C(C(=O)NCCCN3CCN(C)CC3)c3ccccc3C(=O)N1CC2 (centres unmarked) [Compound 61] | 51
51 | CC1CCN(S(=O)(=O)c2ccc(NC(=O)/C=C/c3ccco3)cc2)CC1 [Compound 62] | 72
52 | COc1ccc(NC(=O)c2c(N)sc(-c3ccccc3)c2C)cc1 [Compound 63] | 65
53 | CCN(CC)S(=O)(=O)c1ccc2oc(C(=O)Nc3cccc(OC)c3)c(C)c2c1 [Compound 64] | 65
54 | CC(C)(C)C1CCC(C(=O)OCC(=O)Nc2ccc(C(N)=O)cc2)CC1 (centres unmarked) [Compound 65] | 63
55 | CC(NC(=O)Cc1cccs1)C(c1cccs1)N1CCN(c2ccccc2)CC1 (centres unmarked) [Compound 66] | 62
56 | COC(=O)c1cc2oc3ccccc3c2n1CC(=O)NCc1ccco1 [Compound 67] | 61
